Reference: patent publication US20060030017A1, “Three-dimensional structure of c-Abl” (priority 2004, published 2006)

Biological target: T1, c-Abl protein tyrosine kinase (Homo sapiens, UniProt P00519)
T1 construct: c-Abl Kinase Fragment, Amino Acids 218-500; Factor Xa cleavage site (IEGR) (N); made in house; host or cells: baculovirus / Sf9 insect cells
T1 sequence (P00519 with tags, fused parts or gaps): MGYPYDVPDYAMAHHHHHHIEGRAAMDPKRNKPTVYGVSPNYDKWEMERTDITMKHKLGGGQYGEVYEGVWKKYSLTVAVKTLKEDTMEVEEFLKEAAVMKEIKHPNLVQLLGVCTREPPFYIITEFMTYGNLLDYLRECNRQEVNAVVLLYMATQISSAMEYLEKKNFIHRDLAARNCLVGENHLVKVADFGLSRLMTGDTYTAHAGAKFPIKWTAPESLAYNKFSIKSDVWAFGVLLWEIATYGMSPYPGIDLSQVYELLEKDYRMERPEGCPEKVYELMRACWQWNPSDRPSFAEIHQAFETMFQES
Assay: c-Abl protein tyrosine kinase filter binding assay ([32P]-ATP, Poly-AEKY substrate)
Format: biochemical
Settings: hit from HTD; in vitro confirmation test described, IC50 not given
Method: The top scoring poses are evaluated interactively using molecular graphics to select those compounds which formed favorable intermolecular hydrogen bonds and van der Waals interactions with the c-Abl kinase receptor model, as well as to eliminate compounds containing cis-amides and non-aromatic tautomers. Compounds are also selected for desirable drug-like properties, such as size, lipophilicity and chemical stability. The resulting “hit” compounds are confirmed as leads for drug optimization, by their in vitro evaluation in a test for activity against c-Abl protein tyrosine kinase. The test is conducted as a filter binding assay as follows: The His-tagged kinase domain of c-Abl is cloned and expressed in the baculovirus/Sf9 system. See Bhat et al., J Biol Chem, Vol. 27, pp. 16170-16175 (1997). […] Membranes are counted after drying at ambient temperature, mounting in Packard TopCount 96-well frame, and addition of 10 μL/well of Microscint™ (Packard). The activity of the compounds is quantified as IC50 and IC90 values, as determined from their dose response curves by graphical extrapolation. Thus, IC50 values are determined by linear regression analysis of the percentages for the inhibition of each compound in at least four concentrations (as a rule 0.01, 0.1, 1.0 and […]).

- inhibition of c-Abl kinase (hit identified by virtual screening): specific inhibitors of c-Abl kinase
Compound: COc1cccc(-n2cc(-c3cccc(OCCNCCO)c3)c3ncnc(N)c32)c1 [2-[[2-[3-[4-amino-5-(3-methoxyphenyl)-5H-pyrrolo[3,2-d]pyrimidin-7-yl]phenoxy]ethyl]amino]-ethanol]
